Experiments:
[1] = target: Mu-type opioid receptor (Homo sapiens) (UniProt P35372); test: Intrinsic activity at human mu opioid receptor expressed in CHOK1 cell membranes at 0.00001 to 20 uM after 30 mins by GTP-Eu nucleotide exchange assay relative to DAMGO; type: functional; conditions: CHO-K1
[2] = target: Delta-type opioid receptor (Homo sapiens, UniProt P41143); test: Displacement of [3H]-diprenorphine from human delta opioid receptor expressed in cell membranes
[3] = target: Kappa-type opioid receptor (Cavia porcellus, UniProt P41144); test: Displacement of [3H]-diprenorphine from guinea pig kappa opioid receptor expressed in CHOK1 cell membranes; conditions: cho-k1
Chain of Kappa-type opioid receptor (P41144 whole entry): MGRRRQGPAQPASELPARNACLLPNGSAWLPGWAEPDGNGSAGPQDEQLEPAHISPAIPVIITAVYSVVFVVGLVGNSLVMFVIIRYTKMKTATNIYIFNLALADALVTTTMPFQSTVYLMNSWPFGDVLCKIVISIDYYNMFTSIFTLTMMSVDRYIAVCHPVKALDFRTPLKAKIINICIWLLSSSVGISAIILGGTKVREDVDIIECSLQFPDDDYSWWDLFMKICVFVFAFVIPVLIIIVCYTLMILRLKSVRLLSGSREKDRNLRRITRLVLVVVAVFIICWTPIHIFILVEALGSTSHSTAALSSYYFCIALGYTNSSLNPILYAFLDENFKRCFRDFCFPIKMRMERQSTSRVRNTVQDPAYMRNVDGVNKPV

Chain of Mu-type opioid receptor (Homo sapiens) (P35372 whole entry): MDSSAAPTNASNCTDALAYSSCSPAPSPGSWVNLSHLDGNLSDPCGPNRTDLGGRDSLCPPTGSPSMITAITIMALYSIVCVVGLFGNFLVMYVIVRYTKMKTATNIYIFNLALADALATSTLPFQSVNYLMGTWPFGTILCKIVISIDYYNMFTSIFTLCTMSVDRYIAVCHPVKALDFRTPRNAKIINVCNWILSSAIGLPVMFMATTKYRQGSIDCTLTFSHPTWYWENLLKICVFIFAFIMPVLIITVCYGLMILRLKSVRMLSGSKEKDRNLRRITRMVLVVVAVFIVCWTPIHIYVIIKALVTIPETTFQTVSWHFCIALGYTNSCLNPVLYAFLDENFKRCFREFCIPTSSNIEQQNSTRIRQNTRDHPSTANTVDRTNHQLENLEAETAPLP
Chain of Delta-type opioid receptor (P41143 whole entry): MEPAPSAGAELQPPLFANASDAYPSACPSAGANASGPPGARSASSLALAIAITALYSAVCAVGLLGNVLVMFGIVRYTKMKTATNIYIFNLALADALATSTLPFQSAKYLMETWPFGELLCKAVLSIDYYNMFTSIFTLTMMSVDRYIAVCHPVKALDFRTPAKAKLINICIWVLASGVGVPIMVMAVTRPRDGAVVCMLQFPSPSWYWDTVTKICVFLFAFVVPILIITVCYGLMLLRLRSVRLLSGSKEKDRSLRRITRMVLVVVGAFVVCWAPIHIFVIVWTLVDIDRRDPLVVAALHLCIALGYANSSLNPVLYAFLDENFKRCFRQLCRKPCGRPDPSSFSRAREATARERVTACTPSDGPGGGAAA

| Structure (SMILES) | Intrinsic activity [1] [%] | pKi [2] | pKi [3] |
| --- | --- | --- | --- |
| C[C@H](CN1[C@@H]2CC[C@H]1C[C@@H](c1cccc(O)c1)C2)N(Cc1ccccc1)C(=O)C1CCCCC1 | < 40 | 7 to 10.5 | 7 to 10.5 |
| O=C(Nc1cccc(F)c1)N(CCN1[C@@H]2CC[C@H]1C[C@@H](c1cccc(O)c1)C2)CC1CCCCC1 | < 40 | 7 to 10.5 | 7 to 10.5 |
| O=C(CO)N(CCN1[C@@H]2CC[C@H]1C[C@@H](c1cccc(O)c1)C2)Cc1c(F)cccc1F | < 40 | 7 to 10.5 | 7 to 10.5 |
| CC(C)CC(=O)N(CCN1[C@@H]2CC[C@H]1C[C@@H](c1cccc(O)c1)C2)Cc1c(F)cccc1F | < 40 | 7 to 10.5 | 7 to 10.5 |
| CN(C)[C@@H](Cc1ccccc1)C(=O)N(CCN1[C@@H]2CC[C@H]1C[C@@H](c1cccc(O)c1)C2)CC1CCCCC1 | < 40 | 7 to 10.5 | 7 to 10.5 |
| CS(=O)(=O)CC(=O)N(CCN1[C@@H]2CC[C@H]1C[C@@H](c1cccc(C(N)=O)c1)C2)Cc1c(F)cccc1F | < 40 | 7 to 10.5 | 7 to 10.5 |
| CN(C)CC(=O)N(CCN1[C@@H]2CC[C@H]1C[C@@H](c1cccc(C(N)=O)c1)C2)CC1CCCCC1 | < 40 | 7 to 10.5 | 7 to 10.5 |
| CC(C)(C)C(=O)N(CCN1[C@@H]2CC[C@H]1C[C@@H](c1cccc(C(N)=O)c1)C2)Cc1c(F)cccc1F.O=C(O)C(F)(F)F | < 40 | 7 to 10.5 | 7 to 10.5 |
| NC(=O)c1cccc([C@H]2C[C@H]3CC[C@@H](C2)N3CCN(CC2CCCC2)C(=O)[C@@H](O)CO)c1.O=C(O)C(F)(F)F | < 40 | 7 to 10.5 | 7 to 10.5 |
| CCC(CC)C(=O)N(CCN1[C@@H]2CC[C@H]1C[C@@H](c1cccc(O)c1)C2)Cc1ccccc1 | < 40 | 7 to 10.5 | 7 to 10.5 |
| O=C(O)CC(=O)N(CCN1[C@@H]2CC[C@H]1C[C@@H](c1cccc(O)c1)C2)CC1CCCCC1 | < 40 | 7 to 10.5 | 7 to 10.5 |
| CS(=O)(=O)CC(=O)N(CCN1[C@@H]2CC[C@H]1C[C@@H](c1cccc(C(N)=O)c1)C2)Cc1ccc(C(F)(F)F)cc1.O=C(O)C(F)(F)F | < 40 | 7 to 10.5 | 7 to 10.5 |
| NC(=O)c1cccc([C@H]2C[C@H]3CC[C@@H](C2)N3CCN(CC2CCCCC2)C(=O)[C@H](O)CO)c1 | < 40 | 7 to 10.5 | 7 to 10.5 |
| NC(=O)c1cccc([C@H]2C[C@H]3CC[C@@H](C2)N3CCN(CCc2ccccc2)C(=O)[C@@H](O)CO)c1.O=C(O)C(F)(F)F | < 40 | 7 to 10.5 | 7 to 10.5 |
| NC(=O)c1cccc([C@H]2C[C@H]3CC[C@@H](C2)N3CCN(Cc2c(F)cccc2F)C(=O)[C@H](O)CO)c1.O=C(O)C(F)(F)F | < 40 | 7 to 10.5 | 7 to 10.5 |
| CC(C)NC(=O)N(CCN1[C@@H]2CC[C@H]1C[C@@H](c1cccc(C(N)=O)c1)C2)CC1CCCCC1 | < 40 | 7 to 10.5 | 7 to 10.5 |
| O=C(CO)N(CCN1[C@@H]2CC[C@H]1C[C@@H](c1cccc(O)c1)C2)Cc1ccc(C(F)(F)F)cc1 | < 40 | 7 to 10.5 | 7 to 10.5 |
| NC(=O)c1cccc([C@H]2C[C@H]3CC[C@@H](C2)N3CCN(CCCc2ccccc2)C(=O)CO)c1 | < 40 | 7 to 10.5 | 7 to 10.5 |
| CN[C@@H](CO)C(=O)N(CCN1[C@@H]2CC[C@H]1C[C@@H](c1cccc(C(N)=O)c1)C2)CC1CCCCC1.O=C(O)C(F)(F)F.O=C(O)C(F)(F)F | < 40 | 7 to 10.5 | 7 to 10.5 |
| C[C@H](CN1[C@@H]2CC[C@H]1C[C@@H](c1cccc(O)c1)C2)N(Cc1ccccc1)C(=O)C1CC1 | < 40 | 7 to 10.5 | 7 to 10.5 |
| CS(=O)(=O)CC(=O)N(CCN1[C@@H]2CC[C@H]1C[C@@H](c1cccc(C(N)=O)c1)C2)CC1CCCC1.O=C(O)C(F)(F)F | < 40 | 7 to 10.5 | 7 to 10.5 |
| CC(C)(CO)C(=O)N(CCN1[C@@H]2CC[C@H]1C[C@@H](c1cccc(C(N)=O)c1)C2)Cc1ccccc1.O=C(O)C(F)(F)F | < 40 | 7 to 10.5 | 7 to 10.5 |
| NC(=O)c1cccc([C@H]2C[C@H]3CC[C@@H](C2)N3CCCN(Cc2ccccc2)C(=O)[C@@H](O)CO)c1.O=C(O)C(F)(F)F | < 40 | 7 to 10.5 | 7 to 10.5 |
| O=C(C1CCCCC1)N(CCN1[C@@H]2CC[C@H]1C[C@@H](c1cccc(O)c1)C2)CC1CCCCC1 | < 40 | 7 to 10.5 | 7 to 10.5 |
| CN(C)S(=O)(=O)N(CCN1[C@@H]2CC[C@H]1C[C@@H](c1cccc(C(N)=O)c1)C2)Cc1c(F)cccc1F.O=C(O)C(F)(F)F | < 40 | 7 to 10.5 | 7 to 10.5 |

| Structure (SMILES) | Intrinsic activity [1] [%] | pKi [2] | pKi [3] |
| --- | --- | --- | --- |
| O=C([C@H](O)C1CCCCC1)N(CCN1[C@@H]2CC[C@H]1C[C@@H](c1cccc(O)c1)C2)CC1CCCCC1 | < 40 | 7 to 10.5 | 7 to 10.5 |
| NC(=O)c1cccc([C@H]2C[C@H]3CC[C@@H](C2)N3CCN(CC2CCCCC2)C(=O)[C@@H](O)CCO)c1.O=C(O)C(F)(F)F | < 40 | 7 to 10.5 | 7 to 10.5 |
| O=C(O)CC(=O)N(CCN1[C@@H]2CC[C@H]1C[C@@H](c1cccc(O)c1)C2)Cc1c(F)cccc1F | < 40 | 7 to 10.5 | 7 to 10.5 |
| CS(=O)(=O)CC(=O)N(CCN1[C@@H]2CC[C@H]1C[C@@H](c1cccc(C(N)=O)c1)C2)CC1CCC(F)(F)CC1.O=C(O)C(F)(F)F | < 40 | 7 to 10.5 | 7 to 10.5 |
| NC(=O)c1cccc([C@H]2C[C@H]3CC[C@@H](C2)N3CCN(Cc2cccc(F)c2)C(=O)CO)c1.O=C(O)C(F)(F)F | < 40 | 7 to 10.5 | 7 to 10.5 |
| NC(=O)c1cccc([C@H]2C[C@H]3CC[C@@H](C2)N3CCCN(CC2CCCCC2)C(=O)CO)c1 | < 40 | 7 to 10.5 | 7 to 10.5 |
| O=C([C@@H](O)c1ccccc1)N(CCN1[C@@H]2CC[C@H]1C[C@@H](c1cccc(O)c1)C2)CC1CCCCC1 | < 40 | 7 to 10.5 | 7 to 10.5 |
| C[C@H](O)C(=O)N(CCN1[C@@H]2CC[C@H]1C[C@@H](c1cccc(C(N)=O)c1)C2)CC1CCC(F)(F)CC1.O=C(O)C(F)(F)F | < 40 | 7 to 10.5 | 7 to 10.5 |
| NC(=O)c1cccc([C@H]2C[C@H]3CC[C@@H](C2)N3CCN(CCc2cccc(F)c2)C(=O)CO)c1.O=C(O)C(F)(F)F | < 40 | 7 to 10.5 | 7 to 10.5 |
| NC(=O)c1cccc([C@H]2C[C@H]3CC[C@@H](C2)N3CCN(Cc2ccccc2)C(=O)[C@@H](O)CO)c1.O=C(O)C(F)(F)F | < 40 | 7 to 10.5 | 7 to 10.5 |
| NC(=O)c1cccc([C@H]2C[C@H]3CC[C@@H](C2)N3CCN(CC2CCCC2)C(=O)CCO)c1.O=C(O)C(F)(F)F | < 40 | 7 to 10.5 | 7 to 10.5 |
| COCC(=O)N(CCN1[C@@H]2CC[C@H]1C[C@@H](c1cccc(C(N)=O)c1)C2)Cc1ccccc1.O=C(O)C(F)(F)F | < 40 | 7 to 10.5 | 7 to 10.5 |
| NC(=O)c1cccc([C@H]2C[C@H]3CC[C@@H](C2)N3CCN(CC2CCCCC2)C(=O)Cc2ccccc2)c1 | < 40 | 7 to 10.5 | 7 to 10.5 |
| NC(=O)c1cccc([C@H]2C[C@H]3CC[C@@H](C2)N3CCN(CC2CCCC2)C(=O)[C@H]2CC[C@H](O)CC2)c1.O=C(O)C(F)(F)F | < 40 | 7 to 10.5 | 7 to 10.5 |
| NC(=O)c1cccc([C@H]2C[C@H]3CC[C@@H](C2)N3CCN(Cc2c(F)cccc2F)C(=O)[C@@H](O)CO)c1.O=C(O)C(F)(F)F | < 40 | 7 to 10.5 | 7 to 10.5 |
| O=C(O)CC(=O)N(CCN1[C@@H]2CC[C@H]1C[C@@H](c1cccc(O)c1)C2)Cc1cccc(F)c1 | < 40 | 7 to 10.5 | 7 to 10.5 |
| NC(=O)c1cccc([C@H]2C[C@H]3CC[C@@H](C2)N3CCN(CC2CCC2)C(=O)CO)c1.O=C(O)C(F)(F)F | < 40 | 7 to 10.5 | 7 to 10.5 |
| CCC(=O)N(CCN1[C@@H]2CC[C@H]1C[C@@H](c1cccc(O)c1)C2)CC1CCCCC1 | < 40 | 7 to 10.5 | 7 to 10.5 |
| CS(=O)(=O)Nc1cccc([C@H]2C[C@H]3CC[C@@H](C2)N3CCN(CC2CCCCC2)C(=O)CO)c1 | < 40 | 7 to 10.5 | 7 to 10.5 |
| CN(C)[C@@H](Cc1ccccc1)C(=O)N(CCN1[C@@H]2CC[C@H]1C[C@@H](c1cccc(C(N)=O)c1)C2)CC1CCCCC1 | < 40 | 7 to 10.5 | 7 to 10.5 |
| NC(=O)c1cccc([C@H]2C[C@H]3CC[C@@H](C2)N3CCN(CC2CCC2)C(=O)[C@H](O)CO)c1.O=C(O)C(F)(F)F | < 40 | 7 to 10.5 | 7 to 10.5 |
| CCC(CC)C(=O)N(Cc1ccccc1)[C@H](C)CN1[C@@H]2CC[C@H]1C[C@@H](c1cccc(O)c1)C2 | < 40 | 7 to 10.5 | 7 to 10.5 |
| COc1ccc(NC(=O)N(CCN2[C@@H]3CC[C@H]2C[C@@H](c2cccc(O)c2)C3)CC2CCCCC2)cc1OC | < 40 | 7 to 10.5 | 7 to 10.5 |
| O=C(Nc1ccc(OC(F)F)cc1)N(CCN1[C@@H]2CC[C@H]1C[C@@H](c1cccc(O)c1)C2)CC1CCCCC1 | < 40 | 7 to 10.5 | 7 to 10.5 |
| NC(=O)c1cccc([C@H]2C[C@H]3CC[C@@H](C2)N3CCN(CC2CCCC2)C(=O)[C@H](O)CO)c1.O=C(O)C(F)(F)F | < 40 | 7 to 10.5 | 7 to 10.5 |

From ChEMBL document CHEMBL3879907, “8-azabicyclo[3.2.1]octane compounds as mu opioid receptor antagonists” (2014)
